Among the test systems are ACHN renal; HCT-116 colon; HOP-62 NSCLC; IGROV1 ovarian; K-562 leukemia; KM12 colon; LOX IMVI melanoma; SF-295 CNS; SR leukemia; UACC-62 melanoma.
Common to all, as to experiment: growth of human tumour cells (NCI), 48 h

Molecules are shown by their SMILES. Several values for one entry are separate records, joined by “and”; a condition that tells them apart may be missing. Equal values may be shown once.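 How tested: cells in 96-well plates exposed to compound for 48 hours at five concentrations. Abbreviation: GI50, concentration required for 50% inhibition of growth. The concentration for full growth arrest is given as TGI.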

This passage reports GI50 and TGI results from PubChem BioAssay (NCI).

For the molecule `O=C(c1cccc(O)c1O)c1cn(Cc2ccc(F)cc2)c2cccc(O)c12`, the GI50 in the assay with ACHN renal is 3.2 µM; in the assay with HCT-116 colon it was 3.28 µM; with HOP-62 NSCLC, 5.41 µM; in the assay with IGROV1 ovarian, 0.833 µM; with K-562 leukemia, 3.56 µM; with KM12 colon, 5.46 µM. The GI50 with LOX IMVI melanoma was 2.58 µM; with SF-295 CNS, 5.65 µM; with SR leukemia it was 0.867 µM; in the assay on UACC-62 melanoma, 4.27 µM. The TGI in the assay with ACHN renal was 14.9 µM; in the assay with HCT-116 colon, 17.1 µM; with HOP-62 NSCLC, 19.5 µM; in the assay on IGROV1 ovarian it was 7.85 µM; with K-562 leukemia, > 37.7 µM; in the assay with KM12 colon, 19.4 µM. Moreover, the TGI in the assay with LOX IMVI melanoma was 16.1 µM; with SF-295 CNS it was > 46.5 µM; in the assay on SR leukemia it was 7.81 µM; with UACC-62 melanoma, 14.6 µM.
Regarding `O=c1cccccc1NCCCNc1cccccc1=O`, the TGI in the assay with ACHN renal, in the assay on HCT-116 colon, with HOP-62 NSCLC, in the assay on IGROV1 ovarian, in the assay with K-562 leukemia and in the assay with KM12 colon was > 100 µM each time. In addition, the TGI with LOX IMVI melanoma, in the assay on SF-295 CNS, in the assay on SR leukemia and in the assay with UACC-62 melanoma was > 100 µM throughout.
Turning to `O=C(O)CC1OCC=C2CN3CCC45c6ccccc6NC4C1C2CC35` (stereo not given), the TGI in the assay on ACHN renal, in the assay on HCT-116 colon, in the assay on HOP-62 NSCLC, in the assay with IGROV1 ovarian, in the assay with K-562 leukemia and with KM12 colon was > 100 µM throughout. Besides, the TGI in the assay with LOX IMVI melanoma, in the assay with SF-295 CNS, with SR leukemia and in the assay with UACC-62 melanoma was > 100 µM throughout.
On to `CCOC(=O)Sc1ncnc2nc[nH]c12`, for which the GI50 in the assay on ACHN renal was 4.65 µM; in the assay on HCT-116 colon, 2.31 µM; in the assay on HOP-62 NSCLC, 0.808 µM; in the assay on IGROV1 ovarian, 6.69 µM; in the assay with K-562 leukemia, 0.312 µM; in the assay with KM12 colon, 4.03 µM. For the same molecule, the GI50 in the assay on LOX IMVI melanoma was 0.348 µM; in the assay on SF-295 CNS, 2.43 µM; in the assay on SR leukemia, 0.358 µM; with UACC-62 melanoma it was 1.37 µM. Further, the TGI in the assay on ACHN renal, with HCT-116 colon, in the assay on HOP-62 NSCLC, with IGROV1 ovarian, with K-562 leukemia and with KM12 colon was > 100 µM in each case. Also, the TGI in the assay on LOX IMVI melanoma is > 100 µM; with SF-295 CNS it was > 100 µM; with SR leukemia, 6.35 µM; with UACC-62 melanoma, > 100 µM.
For the molecule `Cc1ccc(S(=O)(=O)n2c(-c3ccccc3)c(-c3ccccc3)c3ccccc32)cc1`, the TGI in the assay on ACHN renal, in the assay with HCT-116 colon, in the assay with HOP-62 NSCLC, with IGROV1 ovarian, in the assay with K-562 leukemia and with KM12 colon was > 100 µM each time. Also, the TGI in the assay with LOX IMVI melanoma, in the assay with SF-295 CNS, with SR leukemia and in the assay with UACC-62 melanoma was > 100 µM in each case.
`COc1cc(OC(=O)c2c(O)cc(O)c(O)c2C)cc(C)c1C(=O)Oc1cc(C)c(C(=O)O)c(O)c1`: the TGI with ACHN renal, in the assay with HCT-116 colon, with HOP-62 NSCLC, in the assay with IGROV1 ovarian, in the assay on K-562 leukemia and with KM12 colon was > 100 µM in each case. For the same molecule, the TGI with LOX IMVI melanoma, in the assay with SF-295 CNS, in the assay with SR leukemia and in the assay with UACC-62 melanoma was > 100 µM in each case.
On to `COc1c2c(cc3nc4ccccc4nc13)CCC(C(C)(C)O)C2` (stereo not given), for which the TGI in the assay with ACHN renal, in the assay on HCT-116 colon, in the assay on HOP-62 NSCLC, in the assay on IGROV1 ovarian, in the assay on K-562 leukemia and in the assay on KM12 colon was > 100 µM each time. In addition, the TGI with LOX IMVI melanoma, with SF-295 CNS, in the assay on SR leukemia and with UACC-62 melanoma was > 100 µM each time.
As to `CCS(=O)(=O)c1ccc(OC)c(Nc2ncc(-c3cccc(C(C)=O)c3)o2)c1`, the GI50 is 11.4 µM in the assay on ACHN renal; 11.4 µM in the assay on HCT-116 colon; > 25 µM with HOP-62 NSCLC; 5.47 µM in the assay with IGROV1 ovarian; 7.56 µM in the assay with K-562 leukemia; 2.1 µM with KM12 colon. The GI50 in the assay on LOX IMVI melanoma is 10.4 µM; with SF-295 CNS it was 23.1 µM; in the assay on SR leukemia, 15.6 µM; in the assay with UACC-62 melanoma, > 25 µM. Moreover, the TGI in the assay on ACHN renal is > 25 µM; in the assay on HCT-116 colon, > 25 µM; in the assay with HOP-62 NSCLC, > 25 µM; with IGROV1 ovarian, 16.1 µM; in the assay with K-562 leukemia, > 25 µM; with KM12 colon, > 25 µM. Moreover, the TGI with LOX IMVI melanoma, in the assay with SF-295 CNS, in the assay with SR leukemia and in the assay on UACC-62 melanoma was > 25 µM in each case.
As for `CC(=O)OC[C@]12CC[C@H]3[C@@H](C[C@H]4O[C@]45[C@@H](O)C=CC(=O)[C@]35C)[C@@H]1CC[C@@H]2[C@H](C)[C@H]1CC(C)=C(C)C(=O)O1`, the GI50 is 0.498 µM and 0.515 µM with ACHN renal; 0.277 µM and 0.166 µM in the assay on HCT-116 colon; 1.51 µM with HOP-62 NSCLC; 0.706 µM and 0.924 µM in the assay with IGROV1 ovarian; 0.272 µM and 0.201 µM in the assay with K-562 leukemia; 0.467 µM and 0.349 µM with KM12 colon. Moreover, the GI50 is 0.303 µM and 0.374 µM in the assay with LOX IMVI melanoma; 0.974 µM and 1.89 µM in the assay on SF-295 CNS; 0.189 µM and 0.187 µM in the assay on SR leukemia; 0.481 µM and 0.479 µM in the assay with UACC-62 melanoma. In addition, the TGI in the assay on ACHN renal is 0.792 µM and 1.16 µM; in the assay on HCT-116 colon, 0.6 µM and 0.424 µM; with HOP-62 NSCLC, 3.52 µM; in the assay on IGROV1 ovarian it was 2.7 µM; with K-562 leukemia, 0.849 µM and 0.979 µM; in the assay with KM12 colon, 1.11 µM. Further, the TGI is 0.692 µM and 1.19 µM with LOX IMVI melanoma; 4.23 µM in the assay on SF-295 CNS; 0.617 µM and 0.631 µM with SR leukemia; 1.58 µM with UACC-62 melanoma.
For `CN/N=C(/CCN1CCCC1)CC(c1ccccc1)c1c(O)c2ccccc2oc1=O` (stereo not given), the TGI in the assay on ACHN renal, in the assay with HCT-116 colon, in the assay with HOP-62 NSCLC, in the assay with IGROV1 ovarian, in the assay with K-562 leukemia and in the assay with KM12 colon was > 100 µM in each case. Moreover, the TGI in the assay on LOX IMVI melanoma, with SF-295 CNS, with SR leukemia and with UACC-62 melanoma was > 100 µM in each case.
